Assay results as given in patent US20250098671A1, “CHITOSAN ENCAPSULATION OF OXYMATRINE AND TEA SAPONIN FOR USE IN PESTICIDAL ACTIVITY” (priority 2023, published 2025).

How the values were obtained:
[1] = system: root-knot nematodes (Meloidogyne spp.); test: Nematocidal activity on hatched root-knot nematodes in Petri dish; details: 15 nematodes; for Nematocidal efficiency (%): up to 3 days
Protocol: The tomato roots infected with root-knot nematodes were washed with running water and were then cut to a size of about 1 cm, after which 50 g of the cut roots were placed in a 500 ml round-bottom flask containing 200 ml of 0.5% sodium hypochloride (NaOCl), stopped with a rubber stopper, and shaken vigorously for 3 min to sterilize the roots and at the same time burst the egg bag. Thereafter, the solution was passed through a sieve in which 200 mesh was superimposed on 500 mesh, and washed with distilled water, so the eggs of the root-knot nematodes from which the NaOCl solution was removed were recovered.
Next, the eggs of the root-knot nematodes thus recovered were surface-sterilized with 0.5% NaOCl for 10 min, washed thoroughly with sterile distilled water, placed in a phosphate buffer (1%) containing sterilized normal saline, and hatched in an incubator at 25° C.
Thereafter, each mixed solution was diluted to 2000 ppm, 2 to 3 ml thereof was poured into a Petri dish, after which 15 hatched root-knot nematodes were placed in the Petri dish, and nematocidal activity was measured and the results thereof are shown in Table 1 below.
The number of root-knot nematodes used for the experiment on the number of killed root-knot nematodes was 15 at each dilution factor.

[2] = all the antioxidant assay systems; cited from earlier work
[3] = system: plant; test: Plant phytotoxicity noted in development assessments
[4] = system: mildew, and anthracnose; test: Fungicide activity of Geraniol oil; details: 500 to 4,000 ppm
[5] = cited from earlier work
[6] = system: black Sigatoka; test: Black Sigatoka activity assessed in development of embodiments; details: in vivo
[7] = system: tomato seedlings; test: Phytotoxicity of geraniol, drenching treatment of potted tomato seedlings; type: in vivo; details: for Phytotoxicity symptom / Extent of phytotoxicity (0-5): Tomato, 1 week after treatment; for Extent of phytotoxicity (0-5): 50 ml drench
Excerpt: Sterilized soil was uniformly mixed, 300 g thereof was then placed in each pot, and tomato seedlings not infected with root-knot nematodes were transplanted thereto.

[8] = system: root-knot nematodes (Meloidogyne spp.); test: Nematocidal activity assessed in development of embodiments; type: in vivo
Excerpt: Other embodiments may include the use of other monoterpene alcohols in place of geraniol. In some embodiments, a plant extract selected from the group consisting of a oxymatrine, neem extract, an Ostericum koreanum extract, Quillaja saponaria Molina and a clove extract may be added.

[9] = system: mosquitos and midge (Ae. aegypti, Culex species mosquitoes, Anopheles species mosquitoes); test: Mosquito and midge adult activity; type: in vivo; details: 500 to 8,000 ppm
[10] = system: multiple insects; test: Insecticidal activity on multiple insects; type: in vivo; details: 500 to 6,000 ppm
[11] = system: Black Sigatoka; test: Field trials against black Sigatoka in bananas; type: in vivo, Mycosphaerella fijiensis; details: applied as tank mixes with tea tree oil
Excerpt: Fungicides are combined in mixtures mainly: to widen the spectrum of antifungal activity and to extend its duration; to exploit the synergistic interaction between the compounds, whereby the overall activity can be increased or the amounts used can be reduced without loss of activity; and to delay or reduce the emergence of resistant strains. […] Although in principle, combinations of synthetic antifungal compounds could be used to reduce the chemical load of any particular compound applied to crops, concerns about resistance development at lower doses have militated against their use as advised by the Fungicide Resistance Action Committee (FRAC).

[12] = 2000 ppm dilution, mixed 1:1 with emulsifier PLE9

C/C=C(\C)C(=O)O[C@H]1C[C@@H](OC(C)=O)[C@@]2(C(=O)OC)CO[C@H]3[C@@H](O)[C@@](C)([C@]45O[C@@]4(C)[C@H]4C[C@@H]5O[C@@H]5OC=C[C@@]54O)[C@H]4[C@]1(CO[C@]4(O)C(=O)OC)[C@@H]32 [Azadirachtin, azadirachtin]
number of killed root-knot nematodes, 1 day [1, 12]: 7 | number of killed root-knot nematodes, 2 days [1, 12]: 8 | number of killed root-knot nematodes, 3 days [1, 12]: 10 | Nematocidal efficiency (%) ([1]; 2000 ppm dilution): 66.7%

O=c1c(O)c(-c2ccccc2)oc2cc(O)cc(O)c12 [Galangin, galangin]
antioxidant activity [2]: comparable activity with that of AEP and EEP

CC(C)=CCC/C(C)=C/CO [Geraniol, 3,7-dimethyl-2,6-octadien-1-ol]
number of killed root-knot nematodes, 1 day [1, 12]: 15ª | number of killed root-knot nematodes, 1 day ([1]; Geraniol 2,000 ppm): 15 | plant phytotoxicity ([3]; 500 to 4,000 ppm): without plant phytotoxicity | plant phytotoxicity or water toxicology ([3]; 500 to 8,000 ppm): without plant phytotoxicity or water toxicology | plant phytotoxicity ([3]; 4,500 ppm or more): plant phytotoxicity was shown to occur | fungicidal control [4]: superior fungicidal control | solubility in organic solvents ([5]; most common organic solvents): soluble in most common organic solvents | solubility in water ([5]; water): insoluble in water | control of the black sigatoka fungus [6]: also effective against the fungus | phytotoxicity symptoms in tomato seedlings ([7]; 4000 ppm or more): all tomato seedlings collapsed and withered | Phytotoxicity symptom ([7]; Geraniol 100 ppm): No | Extent of phytotoxicity (0-5) ([7]; Geraniol 100 ppm): 0 | Phytotoxicity symptom ([7]; Geraniol 200 ppm): No | Extent of phytotoxicity (0-5) ([7]; Geraniol 200 ppm): 0 | Phytotoxicity symptom ([7]; Geraniol 330 ppm): No | Extent of phytotoxicity (0-5) ([7]; Geraniol 330 ppm): 0 | Phytotoxicity symptom ([7]; Geraniol 500 ppm): No | Extent of phytotoxicity (0-5) ([7]; Geraniol 500 ppm): 0 | Phytotoxicity symptom ([7]; Geraniol 1,000 ppm): No | Extent of phytotoxicity (0-5) ([7]; Geraniol 1,000 ppm): 0 | Phytotoxicity symptom ([7]; Geraniol 2,000 ppm): No | Extent of phytotoxicity (0-5) ([7]; Geraniol 2,000 ppm): 0 | Phytotoxicity symptom ([7]; Geraniol 3,000 ppm): No | Extent of phytotoxicity (0-5) ([7]; Geraniol 3,000 ppm): 0 | Phytotoxicity symptom ([7]; Geraniol 4,000 ppm): Withered | Extent of phytotoxicity (0-5) ([7]; Geraniol 4,000 ppm): 5 | Phytotoxicity symptom ([7]; Geraniol 5,000 ppm): Withered | Extent of phytotoxicity (0-5) ([7]; Geraniol 5,000 ppm): 5 | Phytotoxicity symptom ([7]; Geraniol 10,000 ppm): Withered | Extent of phytotoxicity (0-5) ([7]; Geraniol 10,000 ppm): 5 | Phytotoxicity symptom ([7]; Geraniol 20,000 ppm): Withered | Extent of phytotoxicity (0-5) ([7]; Geraniol 20,000 ppm): 5 | phytotoxicity symptoms in tomato seedlings ([7]; concentration range of 100 ppm to 3,000 ppm): no particular phytotoxicity symptoms | nematocidal control ([8]; 500 to 4,000 ppm): superior nematocidal control | nematocidal activity ([8]; utilized alone): superior nematocidal activity | mosquito and midge control [9]: superior mosquito and midge control

O=C1CCC[C@@H]2[C@H]3CCC[N+]4([O-])CCC[C@@H](CN12)[C@@H]34 (stereo partly shown) [Oxymatrine, oxymatrine]
number of killed root-knot nematodes, 1 day [1, 12]: 7 | number of killed root-knot nematodes, 2 days [1, 12]: 9 | number of killed root-knot nematodes, 3 days [1, 12]: 10 | plant phytotoxicity ([3]; 500 to 6,000 ppm): without plant phytotoxicity | insecticidal control [10]: superior insecticidal control

CC1COC(Cn2cncn2)(c2ccc(Oc3ccc(Cl)cc3)cc2Cl)O1 (stereo not shown) [difenoconazole]
control of Black Sigatoka [11]: effectively controlled Black Sigatoka

CON=C(C(=O)OC)c1ccccc1CON=C(C)c1cccc(C(F)(F)F)c1 [trifloxystrobin]
control of Black Sigatoka [11]: effectively controlled Black Sigatoka

pyrethrin
number of killed root-knot nematodes, 1 day [1, 12]: 5 | number of killed root-knot nematodes, 2 days [1, 12]: 6 | number of killed root-knot nematodes, 3 days [1, 12]: 11 | Nematocidal efficiency (%) ([1]; 2000 ppm dilution): 73.3%
